Measured values published in ChEMBL document CHEMBL1148411 (J Med Chem, 2004).
Numbered stars: 1 amine (or outer) side, 2 acyl side, 3 side chain; on linkers, the order of the positions; unused ones are H or OH. Bridge positions count the residues as written; N and C are the ends. Square brackets hold non-standard residues; d marks the D form. Peptide text beside a SMILES is read from it. Phe(4-NH2) = Nc1ccc(C[C@H](N)C(=O)O)cc1; CH2 = C([*:1])[*:2]

What follows are compounds tested against T1, Angiotensin II receptor (AT-1) type-1 (Rattus norvegicus, UniProt P29089+P25095) (assay: Binding affinity for angiotensin II receptor type 1 using [125I]- Ang II in rat liver membranes).
T1 sequence (P29089 whole entry): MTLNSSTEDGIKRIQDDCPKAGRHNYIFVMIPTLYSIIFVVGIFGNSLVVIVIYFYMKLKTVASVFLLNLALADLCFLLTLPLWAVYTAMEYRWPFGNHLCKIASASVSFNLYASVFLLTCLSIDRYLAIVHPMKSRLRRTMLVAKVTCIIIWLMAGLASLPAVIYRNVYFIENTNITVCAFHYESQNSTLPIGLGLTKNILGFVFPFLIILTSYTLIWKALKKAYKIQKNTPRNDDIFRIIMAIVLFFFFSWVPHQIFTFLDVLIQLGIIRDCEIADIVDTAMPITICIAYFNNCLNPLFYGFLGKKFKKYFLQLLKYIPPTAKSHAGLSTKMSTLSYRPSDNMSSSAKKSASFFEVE
T1 sequence (P25095 whole entry): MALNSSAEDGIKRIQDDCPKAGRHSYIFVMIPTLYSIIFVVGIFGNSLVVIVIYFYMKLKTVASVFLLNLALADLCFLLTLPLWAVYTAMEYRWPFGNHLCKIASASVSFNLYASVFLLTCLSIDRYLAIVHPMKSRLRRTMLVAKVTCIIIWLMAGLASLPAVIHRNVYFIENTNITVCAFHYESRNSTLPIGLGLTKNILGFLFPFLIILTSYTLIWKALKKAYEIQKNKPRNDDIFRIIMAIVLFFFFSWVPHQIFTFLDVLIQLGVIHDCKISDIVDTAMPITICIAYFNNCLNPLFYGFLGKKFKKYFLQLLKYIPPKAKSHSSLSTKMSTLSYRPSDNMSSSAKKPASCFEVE
Type: cell membranes, Membrane

Ki	SMILES
0.044 µM	N=C(N)NCCC[C@H](NC(=O)[C@@H](N)CC(=O)O)C(=O)N[C@H]1CSCSC[C@@H](C(=O)N[C@@H](Cc2cnc[nH]2)C(=O)N2CCC[C@H]2C(=O)N[C@@H](Cc2ccccc2)C(=O)O)NC(=O)[C@H](Cc2ccc(O)cc2)NC1=O (H-DRCYCHPF-OH; linker 3-5 via CH2)
> 10 µM	CC[C@H](C)[C@H](NC(=O)[C@H](Cc1ccc(O)cc1)NC(=O)[C@@H](NC(=O)[C@H](CCCN=C(N)N)NC(=O)[C@@H](N)CC(=O)O)C(C)C)C(=O)N[C@@H](Cc1ccc(N)cc1)C(=O)N1CCC[C@H]1C(=O)N[C@@H](Cc1ccccc1)C(=O)O (H-DRVYI[Phe(4-NH2)]PF-OH)
> 10 µM	CC(C)[C@H](NC(=O)[C@H](C)NC(=O)[C@@H](N)CC(=O)O)C(=O)Nc1ccc2c(c1)CN(CC(=O)N[C@@H](Cc1c[nH]cn1)C(=O)N1CCC[C@H]1C(=O)N[C@@H](Cc1ccccc1)C(=O)O)C(=O)[C@H](Cc1ccc(O)cc1)N2
> 10 µM	CC(C)[C@H](NC(=O)[C@H](CCCN=C(N)N)NC(=O)[C@@H](N)CC(=O)O)C(=O)N[C@@H](Cc1ccc(O)cc1)C(=O)Nc1ccc2c(c1)CN(CC(=O)N[C@@H](Cc1ccccc1)C(=O)O)C(=O)[C@H](Cc1c[nH]cn1)N2
> 10 µM	CC[C@@H](C)[C@@H](C(=O)N[C@@H](Cc1c[nH]cn1)C(=O)N1CCC[C@H]1C(=O)N[C@@H](Cc1ccccc1)C(=O)O)N1Cc2cc(NC(=O)[C@H](CCCN=C(N)N)NC(=O)[C@@H](N)CC(=O)O)ccc2[C@@H](Cc2ccc(O)cc2)C1=O (single isomer, unassigned; diastereomer a)
